Measured values: patent EP4100520B1, “SYSTEM AND METHOD OF TR[…] STATES INFORMATION, […] MACR[…]” (Beznosiuk, Jaroslaw, priority 2020, dated 2021)

Key:
human muscle enolase = target: T1, human muscle enolase (Homo sapiens, UniProt P13929); experiment: Enolase glycation with methylglyoxal: specific activity of enolase (absorbance increase at 240 nm, 2-PGA to PEP); format: biochemical; details: for K(1)i / K(1)0 / K(1)i / K(2)i: K1, without entanglement elements; for K(1)i / K(1)0 / Wi / W0: activity relative to own initial value; for Wi / W0 / Wi / K(2)i: W, with entanglement elements
T1 construct: Enolase was isolated from human muscle tissue using own method; from tissue; host or cells: human muscle tissue
T1 sequence (P13929 whole entry): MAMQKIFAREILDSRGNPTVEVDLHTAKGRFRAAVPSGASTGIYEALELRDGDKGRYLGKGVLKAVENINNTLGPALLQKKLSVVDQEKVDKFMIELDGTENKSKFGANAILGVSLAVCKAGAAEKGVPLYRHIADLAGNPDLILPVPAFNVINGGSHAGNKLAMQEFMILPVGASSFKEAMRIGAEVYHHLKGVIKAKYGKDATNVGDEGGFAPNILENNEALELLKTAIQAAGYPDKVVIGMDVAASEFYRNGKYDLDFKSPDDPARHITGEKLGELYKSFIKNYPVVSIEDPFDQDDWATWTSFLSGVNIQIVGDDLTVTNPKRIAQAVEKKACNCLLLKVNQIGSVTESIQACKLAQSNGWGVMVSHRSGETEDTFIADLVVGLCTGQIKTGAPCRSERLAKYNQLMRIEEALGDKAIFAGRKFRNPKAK
Experimental: Methylglyoxal was chosen as an enolase modifying agent because it is formed in the body mainly as a product of defective glycolysis or in the lipid peroxidation process, as well as a result of disorders of defence systems against carbonyl and oxidative stress. Simultaneously, enolase glycation was performed without exposure to the second entanglement elements 9, 9a of the second and third pair of entanglement elements. The second control was a sample of enolase that was not glycated and not treated with the second entanglement elements 9, 9a of the second and third pair of entanglement elements.
The second entanglement elements 9, 9a of the second and third pair of entanglement elements were aluminium plates, 1 cm by 2 cm in size, which were kept for 30 min at room temperature prior to testing. Enolase was isolated from human muscle tissue using own method (Bednarz-Misa I, Pietkiewicz J, et al., 2009. Adv.Clin.Exp.Med. Vol.18 no.1; p.71-78). The enzyme stock solution was a preparation of 7.5 mM of imidazole-HCl, pH 6.8, in stabilizing buffer, containing 2.5 mM of MgSO4, 50 mM of NaCl, 50% of glycerol (formulation stored at 4°C). The concentration of enolase in the stock solution Ro was 8 mg/ml (87 µM), while the enzyme specific activity was 25 IU/mg. In glycation mixtures, the enzyme concentration was 1 mg/ml (Ro diluted 8x with PBS buffer, pH 7.4).
In the experiment, a standard test buffer of 50 mM imidazole-HCl pH 6.8.3 mM MgSO4, 0.4M KCI and a substrate of 2-PGA (sodium salt) dissolved in H2O - a stock solution R0 at a concentration of 58.5 mM was used. 2-PGA in the enzyme assay was used at a standard concentration of 1 mM.
Protein concentration was determined spectrophotometrically by measuring the absorbance of enolase solution at 280 nm wavelength using quartz cuvettes. In the present system, quartz cuvettes constituted the end tanks 10 made of polar dielectric 5. Enolase activity was determined by monitoring in a Jasco UV-Vis V-530 spectrophotometer within 60 seconds, the increase in absorbance of the test solution at 240 nm wavelength (a measure of reaction product production, PEP). The specific activity of the enzyme was expressed in international units relative to 1 mg of protein (Bednarz-Misa I, Pietkiewicz J, et al., 2009. Adv.Clin.Exp.Med. 18(1);71-78).
Two glycation systems were prepared using a large excess of methylglyoxal in relation to enolase (ratio 1:300 mol:mol) - in accordance with the conditions according to [Pietkiewicz J. et al., 2011, Protein J. 30 (3):149-158]: • a) Substantive test: glycation of enolase treated with second entanglement elements 9, 9a of the second and third pair of entanglement elements.
175 µl of PBS pH 7.4 buffer were placed in the quartz cuvette, 20 µl of enolase stock solution and 5.5 µl of 0.8% aqueous methylglyoxal solution were added. In such a system, the effect of quantum information transmitted from source medium 2 (silicon monocrystal) on the modification of the glycolysis/gluconeogenesis enzyme enolase by methylglyoxal as a reactive glycating agent was studied.
In order to transmit quantum information from the source medium 2, the mixture was subjected for 3 hours to two second entanglement elements 9, 9a of the second and third pair of entanglement elements (which adhered to both sides of the cuvette). The system was kept at room temperature. b) Control test 1: glycation of enolase not treated with second entanglement elements 9, 9a of the second and third pairs of entanglement elements.
The reaction system was prepared as a substantive test (a). Incubation at room temperature occurred at the same time, without contact with the second entanglement elements 9, 9a of the second and third pair of entanglement elements (3 m distance from the substantive test). c) Control test 2: Unmodified enolase, not treated with second entanglement elements 9, 9a of the second and third pair of entanglement elements. […]

enolase = target: T2, enolase (Homo sapiens, UniProt P13929); experiment: Electrophoresis to detect high molecular weight advanced glycation products (AGE) of enolase; details: 3 h glycation
T2 construct: Enolase was isolated from human muscle tissue using own method; from tissue; host or cells: human muscle tissue
T2 sequence (P13929 whole entry): as above
Experimental: The glycation process was interrupted after 3 hours by adding an aqueous solution of lysine at a concentration of 4 mg/ml to methylglyoxal samples (excess lysine bound unreacted methylglyoxal).
In order to detect the presence of high molecular weight products of advanced glycation of enolase (AGE), samples of each mixture were electrophoresized. Electrophoresis conditions according to [Pietkiewicz J. et al., 2011, Protein J. 30 (3):149-158]. 12 ug of protein from the analyzed samples was applied to the gel paths.

[1] = relative to unmodified enolase control K2 at same time, 1 h
[2] = relative to unmodified enolase control K2 at same time, 2 h
[3] = relative to unmodified enolase control K2 at same time, 3 h

SMILES: CC(=O)C=O [methylglyoxal]
- Activity (human muscle enolase; Control test 1 (K1): enolase + methylglyoxal (1:300 mol:mol), without entanglement elements, incubation time 0 h, room temperature): 24.6 IU/mg
- Activity (human muscle enolase; Control test 1 (K1): enolase + methylglyoxal, without entanglement elements, incubation time 1 h): 21.37 IU/mg
- Activity (human muscle enolase; Control test 1 (K1): enolase + methylglyoxal, without entanglement elements, incubation time 2 h): 19.15 IU/mg
- Activity (human muscle enolase; Control test 1 (K1): enolase + methylglyoxal, without entanglement elements, incubation time 3 h): 17.64 IU/mg
- K(1)i / K(1)0 (human muscle enolase; 0 h): 100%
- K(1)i / K(1)0 (human muscle enolase; 1 h): 86.9%
- K(1)i / K(1)0 (human muscle enolase; 2 h): 77.85%
- K(1)i / K(1)0 (human muscle enolase; 3 h): 71.7%
- K(1)i / K(2)i (human muscle enolase; activity relative to unmodified enolase control K2 at same time, 0 h): 99.6%
- K(1)i / K(2)i (human muscle enolase; [1]): 93.8%
- K(1)i / K(2)i (human muscle enolase; [2]): 88.8%
- K(1)i / K(2)i (human muscle enolase; [3]): 90.6%
- Activity (human muscle enolase; Substantive test (W): enolase + methylglyoxal + entanglement elements, incubation time 0 h, room temperature): 29.22 IU/mg
- Activity (human muscle enolase; Substantive test (W): enolase + methylglyoxal + entanglement elements, incubation time 1 h): 25.78 IU/mg
- Activity (human muscle enolase; Substantive test (W): enolase + methylglyoxal + entanglement elements, incubation time 2 h): 24.12 IU/mg
- Activity (human muscle enolase; Substantive test (W): enolase + methylglyoxal + entanglement elements, incubation time 3 h): 23.4 IU/mg
- Wi / W0 (human muscle enolase; 0 h): 100%
- Wi / W0 (human muscle enolase; 1 h): 88.2%
- Wi / W0 (human muscle enolase; 2 h): 82.5%
- Wi / W0 (human muscle enolase; 3 h): 80.1%
- Wi / K(2)i (human muscle enolase; relative to unmodified enolase control K2 at same time, 0 h): 118.3%
- Wi / K(2)i (human muscle enolase; [1]): 113.2%
- Wi / K(2)i (human muscle enolase; [2]): 117.3%
- Wi / K(2)i (human muscle enolase; [3]): 120.1%
- activity of the glycated enzyme relative to unmodified control test (human muscle enolase; in the presence of entanglement elements, throughout the experiment (0-3 h)): 113%-120
- decrease in specific activity (human muscle enolase; sample K1, after 3 hours of glycation, without entanglement elements): approx. 28%
- AGE of Mw 180 and Mw 230 kDa (enolase; control test, glycation in the absence of entanglement elements (path 2, fig. 6)): observed
- AGE of Mw 180 and Mw 230 kDa (enolase; substantive test treated with entanglement elements (path 1, fig. 6)): observed
